Experimental data: US20230074545A1, “TREATMENT OF CANCER WITH CDK12/13 INHIBITORS” (Kinnate Biopharma Inc., priority 2019, published 2023)

Key:
Assay in all cases: Radiometric kinase panel
Type in all cases: biochemical
HCK = biological target: T1, HCK (Homo sapiens, UniProt P08631)
T1 construct: purchased ProQinase GmbH (Reaction Biology)
Outline: (§1)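 Activity was measured radiometrically from [gamma-33P]-ATP incorporation into substrate. The kinases were recombinant human GST- or His-tagged proteins, full-length or active fragments, expressed in Sf9 or E. coli. Compound in 10% DMSO was added before the enzyme/substrate mix, which started the reaction.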

MARK3 = biological target: T2, MARK3 (Homo sapiens, UniProt P27448)
T2 construct: either as full-length or enzymatically active fragments; purchased ProQinase GmbH (Reaction Biology); host or cells: Sf9 insect cells or E. coli
Outline: as §1

MAP3K1 = biological target: T3, MAP3K1 (Homo sapiens, UniProt Q13233)
T3 construct: either as full-length or enzymatically active fragments; purchased ProQinase GmbH (Reaction Biology); host or cells: Sf9 insect cells or E. coli (not specified per kinase)
Outline: as §1

ACVRL1 = biological target: T4, ACVRL1 (Homo sapiens, UniProt P37023)
T4 construct: either as full-length or enzymatically active fragments; purchased ProQinase GmbH (Reaction Biology)
Outline: as §1

DYRK1A = biological target: T5, DYRK1A (Homo sapiens, UniProt Q13627)
T5 construct: either as full-length or enzymatically active fragments; purchased ProQinase GmbH (Reaction Biology)
Outline: as §1

CK2alpha1 = biological target: T6, CK2alpha1 (Homo sapiens, UniProt P68400)
T6 construct: either as full-length or enzymatically active fragments; purchased ProQinase GmbH (Reaction Biology)
Outline: as §1

ACK1 = biological target: T7, ACK1 (Homo sapiens, UniProt Q07912)
T7 construct: either as full-length or enzymatically active fragments; purchased ProQinase GmbH (Reaction Biology)
Outline: as §1

PKCzeta = biological target: T8, PKCzeta (Homo sapiens, UniProt Q05513)
T8 construct: either as full-length or enzymatically active fragments; purchased ProQinase GmbH (Reaction Biology)
Outline: as §1

MUSK = biological target: T9, MUSK (Homo sapiens, UniProt O15146)
T9 construct: either as full-length or enzymatically active fragments; purchased ProQinase GmbH (Reaction Biology)
Outline: as §1

TTBK2 = biological target: T10, TTBK2 (Homo sapiens, UniProt Q6IQ55)
T10 construct: either as full-length or enzymatically active fragments; purchased ProQinase GmbH (Reaction Biology)
Outline: as §1

STK39 = biological target: T11, STK39 (Homo sapiens, UniProt Q9UEW8)
T11 construct: either as full-length or enzymatically active fragments; purchased ProQinase GmbH (Reaction Biology)
Outline: as §1

TSK2 = biological target: T12, TSK2 (Homo sapiens, UniProt Q96PF2)
T12 construct: purchased ProQinase GmbH (Reaction Biology)
Outline: as §1

CDC7/DBF4 = biological target: T13, CDC7/DBF4 (Homo sapiens, UniProt O00311)
T13 construct: purchased ProQinase GmbH (Reaction Biology)
Outline: as §1

EGFR = biological target: T14, EGFR (Homo sapiens, UniProt P00533)
T14 construct: either as full-length or enzymatically active fragments; purchased ProQinase GmbH (Reaction Biology)
Outline: as §1

FYN = biological target: T15, FYN (Homo sapiens, UniProt P06241)
T15 construct: purchased ProQinase GmbH (Reaction Biology)
Outline: as §1

TTBK1 = biological target: T16, TTBK1 (Homo sapiens, UniProt Q5TCY1)
T16 construct: either as full-length or enzymatically active fragments; purchased ProQinase GmbH (Reaction Biology)
Outline: as §1

AKT2 = biological target: T17, AKT2 (Homo sapiens, UniProt P31751)
T17 construct: either as full-length or enzymatically active fragments; purchased ProQinase GmbH (Reaction Biology); host or cells: Sf9 insect cells or E. coli (not specified per kinase)
Outline: as §1

PHKG1 = biological target: T18, PHKG1 (Homo sapiens, UniProt Q16816)
T18 construct: either as full-length or enzymatically active fragments; purchased ProQinase GmbH (Reaction Biology)
Outline: as §1

RAF1 YDYD = biological target: T19, RAF1 YDYD (Homo sapiens, UniProt P04049, Y340D/Y341D)
T19 construct: either as full-length or enzymatically active fragments; purchased ProQinase GmbH (Reaction Biology); host or cells: Sf9 insect cells or E. coli (not specified per kinase)
Outline: as §1

CAMK2B = biological target: T20, CAMK2B (Homo sapiens, UniProt Q13554)
T20 construct: either as full-length or enzymatically active fragments; purchased ProQinase GmbH (Reaction Biology)
Outline: as §1

SIK3 = biological target: T21, SIK3 (Homo sapiens, UniProt Q9Y2K2)
T21 construct: either as full-length or enzymatically active fragments; purchased ProQinase GmbH (Reaction Biology)
Outline: as §1

NEK11 = biological target: T22, NEK11 (Homo sapiens, UniProt Q8NG66)
T22 construct: either as full-length or enzymatically active fragments; purchased ProQinase GmbH (Reaction Biology)
Outline: as §1

ULK2 = biological target: T23, ULK2 (Homo sapiens, UniProt Q8IYT8)
T23 construct: either as full-length or enzymatically active fragments; purchased ProQinase GmbH (Reaction Biology)
Outline: as §1

ERK7 = biological target: T24, ERK7 (Homo sapiens, UniProt Q8TD08)
T24 construct: either as full-length or enzymatically active fragments; purchased ProQinase GmbH (Reaction Biology)
Outline: as §1

p38delta = biological target: T25, p38delta (Homo sapiens, UniProt O15264)
T25 construct: either as full-length or enzymatically active fragments; purchased ProQinase GmbH (Reaction Biology)
Outline: as §1

ROCK2 = biological target: T26, ROCK2 (Homo sapiens, UniProt O75116)
T26 construct: either as full-length or enzymatically active fragments; purchased ProQinase GmbH (Reaction Biology)
Outline: as §1

BRK = biological target: T27, BRK (Homo sapiens, UniProt Q13882)
T27 construct: purchased ProQinase GmbH (Reaction Biology); host or cells: Sf9 insect cells or E. coli (not specified per kinase)
Outline: as §1

PAK6 = biological target: T28, PAK6 (Homo sapiens, UniProt Q9NQU5)
T28 construct: either as full-length or enzymatically active fragments; purchased ProQinase GmbH (Reaction Biology)
Outline: as §1

SRPK1 = biological target: T29, SRPK1 (Homo sapiens, UniProt Q96SB4)
T29 construct: either as full-length or enzymatically active fragments; purchased ProQinase GmbH (Reaction Biology)
Outline: as §1

STK33 = biological target: T30, STK33 (Homo sapiens, UniProt Q9BYT3)
T30 construct: either as full-length or enzymatically active fragments; purchased ProQinase GmbH (Reaction Biology)
Outline: as §1

T1 sequence (P08631 whole entry): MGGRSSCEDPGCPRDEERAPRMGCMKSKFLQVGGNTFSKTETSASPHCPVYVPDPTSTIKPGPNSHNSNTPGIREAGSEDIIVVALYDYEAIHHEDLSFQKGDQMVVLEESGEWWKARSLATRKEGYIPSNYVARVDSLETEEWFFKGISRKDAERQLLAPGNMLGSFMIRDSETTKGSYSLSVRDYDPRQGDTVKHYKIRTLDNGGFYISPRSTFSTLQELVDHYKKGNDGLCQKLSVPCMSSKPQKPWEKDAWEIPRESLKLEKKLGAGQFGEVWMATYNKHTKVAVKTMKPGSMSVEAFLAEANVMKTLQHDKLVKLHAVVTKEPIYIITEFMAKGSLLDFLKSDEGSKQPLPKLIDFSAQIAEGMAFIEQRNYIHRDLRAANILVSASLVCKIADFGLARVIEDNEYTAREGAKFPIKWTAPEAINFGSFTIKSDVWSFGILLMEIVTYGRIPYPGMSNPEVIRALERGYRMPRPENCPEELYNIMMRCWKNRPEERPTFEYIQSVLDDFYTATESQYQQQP
T2 sequence (P27448 whole entry, the tested form may be a part): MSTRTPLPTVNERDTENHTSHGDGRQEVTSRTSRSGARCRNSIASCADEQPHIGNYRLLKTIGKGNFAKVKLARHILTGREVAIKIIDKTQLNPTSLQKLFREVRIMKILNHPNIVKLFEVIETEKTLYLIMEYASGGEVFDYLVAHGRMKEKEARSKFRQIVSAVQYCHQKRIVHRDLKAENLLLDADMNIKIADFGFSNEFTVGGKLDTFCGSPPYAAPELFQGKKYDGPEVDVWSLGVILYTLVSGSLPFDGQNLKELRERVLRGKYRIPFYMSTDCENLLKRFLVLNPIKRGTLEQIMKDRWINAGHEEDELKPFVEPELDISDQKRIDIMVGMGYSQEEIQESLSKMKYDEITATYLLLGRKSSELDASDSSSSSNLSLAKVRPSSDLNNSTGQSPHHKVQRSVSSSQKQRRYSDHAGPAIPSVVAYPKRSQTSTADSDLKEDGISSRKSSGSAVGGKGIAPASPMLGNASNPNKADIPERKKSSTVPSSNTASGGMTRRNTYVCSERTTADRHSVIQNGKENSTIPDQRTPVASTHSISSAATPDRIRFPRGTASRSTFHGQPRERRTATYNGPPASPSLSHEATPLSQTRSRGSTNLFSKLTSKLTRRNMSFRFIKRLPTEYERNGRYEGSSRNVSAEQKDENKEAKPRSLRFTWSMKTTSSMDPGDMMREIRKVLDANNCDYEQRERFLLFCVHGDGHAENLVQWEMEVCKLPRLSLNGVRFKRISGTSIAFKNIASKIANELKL
T22 sequence (Q8NG66 whole entry, the tested form may be a part): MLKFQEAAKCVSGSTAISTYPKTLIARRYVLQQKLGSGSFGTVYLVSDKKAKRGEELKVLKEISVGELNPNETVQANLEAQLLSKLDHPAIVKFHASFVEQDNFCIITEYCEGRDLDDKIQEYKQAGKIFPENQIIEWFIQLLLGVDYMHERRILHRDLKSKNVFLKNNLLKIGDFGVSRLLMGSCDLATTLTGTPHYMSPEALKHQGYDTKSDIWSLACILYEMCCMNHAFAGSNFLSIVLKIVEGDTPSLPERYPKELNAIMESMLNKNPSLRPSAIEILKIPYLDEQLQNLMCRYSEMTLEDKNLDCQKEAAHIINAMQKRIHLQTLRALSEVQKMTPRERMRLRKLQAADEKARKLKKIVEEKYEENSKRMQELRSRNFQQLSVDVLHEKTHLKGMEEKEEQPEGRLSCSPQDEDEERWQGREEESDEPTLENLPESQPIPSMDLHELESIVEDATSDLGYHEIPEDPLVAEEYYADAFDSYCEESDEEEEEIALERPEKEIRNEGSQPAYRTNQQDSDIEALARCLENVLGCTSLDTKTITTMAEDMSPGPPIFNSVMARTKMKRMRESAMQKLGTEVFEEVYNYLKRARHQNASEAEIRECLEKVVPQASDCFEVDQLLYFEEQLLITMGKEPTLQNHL
T20 sequence (Q13554 whole entry, the tested form may be a part): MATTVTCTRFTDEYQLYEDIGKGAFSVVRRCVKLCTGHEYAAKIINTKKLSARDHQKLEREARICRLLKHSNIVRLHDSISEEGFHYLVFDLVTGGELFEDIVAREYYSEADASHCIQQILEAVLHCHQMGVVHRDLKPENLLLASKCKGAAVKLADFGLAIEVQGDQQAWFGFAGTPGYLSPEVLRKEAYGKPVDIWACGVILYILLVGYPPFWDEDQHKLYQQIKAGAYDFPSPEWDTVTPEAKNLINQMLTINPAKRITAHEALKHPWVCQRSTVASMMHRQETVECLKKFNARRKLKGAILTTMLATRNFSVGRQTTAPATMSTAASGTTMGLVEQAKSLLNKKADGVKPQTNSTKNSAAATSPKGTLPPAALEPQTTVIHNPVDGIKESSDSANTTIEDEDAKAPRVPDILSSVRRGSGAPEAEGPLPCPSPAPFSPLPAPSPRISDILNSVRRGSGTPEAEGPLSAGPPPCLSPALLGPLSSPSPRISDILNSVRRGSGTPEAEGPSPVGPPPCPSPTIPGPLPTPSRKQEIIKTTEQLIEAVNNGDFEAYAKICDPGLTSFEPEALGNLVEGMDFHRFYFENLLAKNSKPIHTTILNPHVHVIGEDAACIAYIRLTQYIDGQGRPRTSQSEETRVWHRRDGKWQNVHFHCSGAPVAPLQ
T12 sequence (Q96PF2 whole entry): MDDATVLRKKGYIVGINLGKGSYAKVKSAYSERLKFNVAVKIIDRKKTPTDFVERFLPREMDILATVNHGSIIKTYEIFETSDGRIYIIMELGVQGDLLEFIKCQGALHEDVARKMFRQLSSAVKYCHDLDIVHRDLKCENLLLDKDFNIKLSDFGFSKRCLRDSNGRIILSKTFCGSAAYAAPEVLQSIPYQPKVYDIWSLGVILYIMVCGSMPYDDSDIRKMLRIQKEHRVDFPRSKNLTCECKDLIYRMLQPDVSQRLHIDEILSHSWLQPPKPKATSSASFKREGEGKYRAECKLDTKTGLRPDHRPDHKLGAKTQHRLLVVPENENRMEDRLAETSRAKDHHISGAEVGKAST
T27 sequence (Q13882 whole entry): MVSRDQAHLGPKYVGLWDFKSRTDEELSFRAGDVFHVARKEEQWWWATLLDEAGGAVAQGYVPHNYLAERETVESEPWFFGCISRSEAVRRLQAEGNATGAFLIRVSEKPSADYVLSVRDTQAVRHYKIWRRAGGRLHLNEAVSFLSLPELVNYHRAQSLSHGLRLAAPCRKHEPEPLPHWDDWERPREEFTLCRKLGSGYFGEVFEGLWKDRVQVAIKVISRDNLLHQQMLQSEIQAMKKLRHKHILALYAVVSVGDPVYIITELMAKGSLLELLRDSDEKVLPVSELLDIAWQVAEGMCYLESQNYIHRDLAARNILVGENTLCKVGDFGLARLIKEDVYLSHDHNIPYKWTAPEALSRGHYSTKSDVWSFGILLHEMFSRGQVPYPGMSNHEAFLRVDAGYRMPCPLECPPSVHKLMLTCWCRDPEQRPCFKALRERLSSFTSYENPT
T21 sequence (Q9Y2K2 whole entry, the tested form may be a part): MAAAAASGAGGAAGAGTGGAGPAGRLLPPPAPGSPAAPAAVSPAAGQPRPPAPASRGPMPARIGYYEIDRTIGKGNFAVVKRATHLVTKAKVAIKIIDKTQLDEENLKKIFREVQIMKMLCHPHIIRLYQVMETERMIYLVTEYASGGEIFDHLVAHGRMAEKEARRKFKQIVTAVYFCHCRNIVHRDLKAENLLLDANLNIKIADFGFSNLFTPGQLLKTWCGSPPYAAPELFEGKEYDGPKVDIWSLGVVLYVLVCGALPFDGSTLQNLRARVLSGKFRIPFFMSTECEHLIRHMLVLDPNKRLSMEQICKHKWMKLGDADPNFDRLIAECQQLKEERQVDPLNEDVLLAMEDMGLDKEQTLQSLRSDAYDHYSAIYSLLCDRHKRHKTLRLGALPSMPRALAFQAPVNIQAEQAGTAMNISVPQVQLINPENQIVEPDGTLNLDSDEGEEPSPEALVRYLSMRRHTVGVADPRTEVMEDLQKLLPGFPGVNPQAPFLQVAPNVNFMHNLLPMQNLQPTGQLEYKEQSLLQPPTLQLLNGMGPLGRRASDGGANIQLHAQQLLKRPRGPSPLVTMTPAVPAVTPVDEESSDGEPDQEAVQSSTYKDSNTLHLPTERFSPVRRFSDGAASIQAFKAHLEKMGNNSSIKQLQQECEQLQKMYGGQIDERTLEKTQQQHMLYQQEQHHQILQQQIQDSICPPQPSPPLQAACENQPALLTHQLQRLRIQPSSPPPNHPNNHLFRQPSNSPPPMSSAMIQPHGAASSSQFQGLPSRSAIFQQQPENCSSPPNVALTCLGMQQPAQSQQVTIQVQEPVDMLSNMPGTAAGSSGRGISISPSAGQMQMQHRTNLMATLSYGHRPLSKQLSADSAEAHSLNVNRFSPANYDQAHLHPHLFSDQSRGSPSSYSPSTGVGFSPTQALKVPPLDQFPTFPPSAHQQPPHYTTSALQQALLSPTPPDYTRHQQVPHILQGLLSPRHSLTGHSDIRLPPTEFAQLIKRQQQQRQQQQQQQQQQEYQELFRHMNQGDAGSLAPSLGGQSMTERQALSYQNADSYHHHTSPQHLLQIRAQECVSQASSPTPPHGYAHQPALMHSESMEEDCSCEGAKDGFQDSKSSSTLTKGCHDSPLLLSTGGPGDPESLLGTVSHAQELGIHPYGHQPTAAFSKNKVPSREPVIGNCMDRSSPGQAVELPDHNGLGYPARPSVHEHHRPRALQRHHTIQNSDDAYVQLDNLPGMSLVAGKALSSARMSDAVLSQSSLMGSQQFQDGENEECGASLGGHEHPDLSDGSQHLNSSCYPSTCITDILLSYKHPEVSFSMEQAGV

C=CC(=O)Nc1ccc(C(=O)N2CC[C@@H](Nc3ncc(C#N)cn3)C2)cc1 [Compound 4, (R)-N-(4-(3-((5-cyanopyrimidin-2-yl)amino)pyrrolidine-1-carbonyl)phenyl)acrylamide]
inhibition at 1 µM (HCK): 0% | inhibition at 1 µM (MARK3): -17% | inhibition at 1 µM (MAP3K1): 9% | inhibition at 1 µM (ACVRL1): 3% | inhibition at 1 µM (DYRK1A): 7% | inhibition at 1 µM (CK2alpha1): -4% | inhibition at 1 µM (ACK1): 6% | inhibition at 1 µM (PKCzeta): -3% | inhibition at 1 µM (MUSK): 7% | inhibition at 1 µM (TTBK2): 3% | inhibition at 1 µM (STK39): 6% | inhibition at 1 µM (TSK2): -1% | inhibition at 1 µM (CDC7/DBF4): -2% | inhibition at 1 µM (EGFR): 7% | inhibition at 1 µM (FYN): -2% | inhibition at 1 µM (TTBK1): -5% | inhibition at 1 µM (AKT2): 11% | inhibition at 1 µM (PHKG1): 18% | inhibition at 1 µM (RAF1 YDYD): 9% | inhibition at 1 µM (CAMK2B): -12% | inhibition at 1 µM (SIK3): 8% | inhibition at 1 µM (NEK11): -5% | inhibition at 1 µM (ULK2): 3% | inhibition at 1 µM (ERK7): 17% | inhibition at 1 µM (p38delta): 5% | inhibition at 1 µM (ROCK2): 19% | inhibition at 1 µM (BRK): 1% | inhibition at 1 µM (PAK6): 4% | inhibition at 1 µM (SRPK1): -8% | inhibition at 1 µM (STK33): 5%
